Each structure is given as a SMILES string. Where a name gives a salt, the structure may show the parent alone.

The test system of this assay is Human WB (90%) CD69. Nature of the assay: Human WB (90%) CD69. Type of assay: cell-based. Conditions: read-out: Human WB (90%) CD69 IC50 (nM); human whole blood (90%), CD69 readout.
In the case of `CC(C)N1CCN(c2ccc(-c3cc(NCCN4CCOCC4)c4nc(C5CC5)n(C)c4c3)cc2)CC1` [Example 31, 2-cyclopropyl-6-(4-(4-isopropylpiperazin-1-yl)phenyl)-1-methyl-N-(2-morpholinoethyl)-1H-benzo[d]imidazol-4-amine, 2 TFA], the IC50 was determined as 302 nM.
Turning to `CC(C)N1CCN(c2ccc(-c3cc(NCCN4CCOCC4)c4nc(C5CCC5)n(C)c4c3)cc2)CC1` [Example 32, 2-cyclobutyl-6-(4-(4-isopropylpiperazin-1-yl)phenyl)-1-methyl-N-(2-morpholinoethyl)-1H-benzo[d]imidazol-4-amine, 2 TFA], the 50% inhibitory concentration (IC50) is 79 nM.
Consider `Cc1cc(C)nc(Nc2cc(-c3ccc(N4CCN(C(C)C)CC4)cc3)cc3c2nc(C2CC2)n3C)c1` [Example 33, 2-cyclopropyl-N-(4,6-dimethylpyridin-2-yl)-6-(4-(4-isopropylpiperazin-1-yl)phenyl)-1-methyl-1H-benzo[d]imidazol-4-amine, TFA], for which the IC50 was determined as 245 nM.
On to `Cc1cc(C)nc(Nc2cc(-c3ccc(N4CCN(C(C)C)CC4)cc3)cc3c2nc(C2CCC2)n3C)c1` [Example 34, 2-cyclobutyl-N-(4,6-dimethylpyridin-2-yl)-6-(4-(4-isopropylpiperazin-1-yl)phenyl)-1-methyl-1H-benzo[d]imidazol-4-amine, TFA], for which the IC50 stood at 587 nM.
As for `CC(C)N1CCN(c2ccc(-c3cc(NCCN4CCC(F)(F)CC4)c4nc(-c5ccc(S(C)(=O)=O)cc5)n(C)c4c3)cc2)CC1` [Example 35, N-(2-(4,4-difluoropiperidin-1-yl)ethyl)-6-(4-(4-isopropylpiperazin-1-yl)phenyl)-1-methyl-2-(4-(methylsulfonyl)phenyl)-1H-benzo[d]imidazol-4-amine], the IC50 came out at 571 nM.
`CC(C)N1CCN(c2ccc(-c3cc(NCc4ccc(CN5CCOCC5)cc4)c4nc(-c5ccc(S(C)(=O)=O)cc5)n(C)c4c3)cc2)CC1` [Example 36, 6-(4-(4-isopropylpiperazin-1-yl)phenyl)-1-methyl-2-(4-(methylsulfonyl)phenyl)-N-(4-(morpholinomethyl)benzyl)-1H-benzo[d]imidazol-4-amine]: the IC50 was 221 nM.
Consider `CC(C)N1CCN(c2ccc(-c3cc(Nc4ccc(N5CCOCC5)nn4)c4nc(-c5ccc(S(C)(=O)=O)cc5)n(C)c4c3)cc2)CC1` [Example 37, 6-(4-(4-isopropylpiperazin-1-yl)phenyl)-1-methyl-2-(4-(methylsulfonyl)phenyl)-N-(6-morpholinopyridazin-3-yl)-1H-benzo[d]imidazol-4-amine, TFA], for which the IC50 amounted to 167 nM.
Regarding `Cc1cc(C)nc(Nc2cc(-c3ccc(N4CCN(C5CCOCC5)CC4)cc3)cc3c2nc(-c2ccc(S(C)(=O)=O)cc2)n3C)c1` [Example 38, N-(4,6-dimethylpyridin-2-yl)-1-methyl-2-(4-(methylsulfonyl)phenyl)-6-(4-(4-(tetrahydro-2H-pyran-4-yl)piperazin-1-yl)phenyl)-1H-benzo[d]imidazol-4-amine], the IC50 turned out to be 899 nM.
With `CC(C)N1CCN(c2ccc(-c3cc(NCCN4CCOCC4)c4ncn(C)c4c3)cc2)CC1` [Example 39, 6-(4-(4-isopropylpiperazin-1-yl)phenyl)-1-methyl-N-(2-morpholinoethyl)-1H-benzo[d]imidazol-4-amine, 2 TFA], the IC50 was found to be 283 nM.
Take `Cc1cc(C)nc(Nc2cc(-c3ccc(N4CCN(C(C)C)CC4)cc3)cc3c2ncn3C)c1` [Example 40, N-(4,6-dimethylpyridin-2-yl)-6-(4-(4-isopropylpiperazin-1-yl)phenyl)-1-methyl-1H-benzo[d]imidazol-4-amine]: the IC50 amounted to 565 nM.
Next, `Cc1cc(C)nc(Nc2cc(-c3ccc(N4CCN(C(C)C)CC4)cc3)cc3c2nc(C2CCS(=O)(=O)CC2)n3C)c1` [Example 41, 4-(4-((4,6-dimethylpyridin-2-yl)amino)-6-(4-(4-isopropylpiperazin-1-yl)phenyl)-1-methyl-1H-benzo[d]imidazol-2-yl)tetrahydro-2H-thiopyran 1,1-dioxide. TFA]: 128 nM; `CC(C)N1CCN(c2ccc(-c3cc(NCCN4CCOCC4)c4nc(C5CCS(=O)(=O)CC5)n(C)c4c3)cc2)CC1` [Example 42, 4-(6-(4-(4-isopropylpiperazin-1-yl)phenyl)-1-methyl-4-((2-morpholinoethyl)amino)-1H-benzo[d]imidazol-2-yl)tetrahydro-2H-thiopyran 1,1-dioxide]: 925 nM.
For the compound `CC(C)N1CCN(c2ccc(-c3cc(NCc4ccc(CN5CCOCC5)cc4)c4nc(C5CCS(=O)(=O)CC5)n(C)c4c3)cc2)CC1` [Example 43, 4-(6-(4-(4-isopropylpiperazin-1-yl)phenyl)-1-methyl-4-((4-(morpholinomethyl)benzyl)amino)-1H-benzo[d]imidazol-2-yl)tetrahydro-2H-thiopyran 1,1-dioxide, 2 TFA], the IC50 was determined as 396 nM.
Take `Cc1cc(C)nc(Nc2cc(-c3ccc(N4CCN(C(C)C)CC4)cc3)cc3c2nc(C2COC2)n3C)c1` [Example 44, N-(4,6-dimethylpyridin-2-yl)-6-(4-(4-isopropylpiperazin-1-yl)phenyl)-1-methyl-2-(oxetan-3-yl)-1H-benzo[d]imidazol-4-amine]: the IC50 turned out to be 282 nM.
Consider `CC(C)N1CCN(c2ccc(-c3cc(NCCN4CCOCC4)c4nc(C5COC5)n(C)c4c3)cc2)CC1` [Example 45, 6-(4-(4-isopropylpiperazin-1-yl)phenyl)-1-methyl-N-(2-morpholinoethyl)-2-(oxetan-3-yl)-1H-benzo[d]imidazol-4-amine], for which the IC50 amounted to 473 nM.
Next, `CC(C)N1CCN(c2ccc(-c3cc(NCc4ccc(CN5CCOCC5)cc4)c4nc(C5COC5)n(C)c4c3)cc2)CC1` [Example 46, 6-(4-(4-isopropylpiperazin-1-yl)phenyl)-1-methyl-N-(4-(morpholinomethyl)benzyl)-2-(oxetan-3-yl)-1H-benzo[d]imidazol-4-amine]: 534 nM; `CC(C)N1CCN(c2ccc(-c3cc(NCCN4CCOCC4)c4nc(C5CCOCC5)n(C)c4c3)cc2)CC1` [Example 47, 6-(4-(4-isopropylpiperazin-1-yl)phenyl)-1-methyl-N-(2-morpholinoethyl)-2-(tetrahydro-2H-pyran-4-yl)-1H-benzo[d]imidazol-4-amine, 2 TFA]: 181 nM.
Regarding `Cc1cc(C)nc(Nc2cc(-c3ccc(N4CCN(C(C)C)CC4)cc3)cc3c2nc(C2CCOCC2)n3C)c1` [Example 48, N-(4,6-dimethylpyridin-2-yl)-6-(4-(4-isopropylpiperazin-1-yl)phenyl)-1-methyl-2-(tetrahydro-2H-pyran-4-yl)-1H-benzo[d]imidazol-4-amine, TFA], the IC50 was 109 nM.
For `Cc1cc(C)nc(Nc2cc(-c3ccc(N4CCN(C(C)C)CC4)cc3)cc3c2nc(-c2cnoc2)n3C)c1` [Example 49, N-(4,6-dimethylpyridin-2-yl)-6-(4-(4-isopropylpiperazin-1-yl)phenyl)-2-(isoxazol-4-yl)-1-methyl-1H-benzo[d]imidazol-4-amine, TFA], the IC50 was 1090 nM.
With `CC(C)N1CCN(c2ccc(-c3cc(NC4CCN(S(C)(=O)=O)CC4)c4nc(C5CCN(S(C)(=O)=O)CC5)n(C)c4c3)cc2)CC1` [Example 50, 6-(4-(4-isopropylpiperazin-1-yl)phenyl)-1-methyl-N,2-bis(1-(methylsulfonyl)piperidin-4-yl)-1H-benzo[d]imidazol-4-amine], the IC50 is 1530 nM.
Take `Cc1cc(C)nc(Nc2cc(-c3ccc(N4CCN(C(C)C)CC4)cc3)cc3c2nc(-c2cc[nH]c2)n3C)c1` [Example 51, N-(4,6-dimethylpyridin-2-yl)-6-(4-(4-isopropylpiperazin-1-yl)phenyl)-1-methyl-2-(1H-pyrrol-3-yl)-1H-benzo[d]imidazol-4-amine]: the IC50 came to 61 nM.
`Cc1cc(C)nc(Nc2cc(-c3ccc(N4CCN(C(C)C)CC4)cc3)cc3c2nc(-c2ccco2)n3C)c1` [Example 52, N-(4,6-dimethylpyridin-2-yl)-2-(furan-2-yl)-6-(4-(4-isopropylpiperazin-1-yl)phenyl)-1-methyl-1H-benzo[d]imidazol-4-amine, TFA]: the IC50 was 62 nM.
The value for `Cc1cc(C)nc(Nc2cc(-c3ccc(N4CCN(C(C)C)CC4)cc3)cc3c2nc(-c2cc[nH]n2)n3C)c1` [Example 53, N-(4,6-dimethylpyridin-2-yl)-6-(4-(4-isopropylpiperazin-1-yl)phenyl)-1-methyl-2-(1H-pyrazol-3-yl)-1H-benzo[d]imidazol-4-amine, TFA] was 75 nM; that for `CC(C)N1CCN(c2ccc(-c3cc(NC4CCN(S(C)(=O)=O)CC4)c4nc(N(C)C)n(C)c4c3)cc2)CC1` [Example 54, 6-(4-(4-isopropylpiperazin-1-yl)phenyl)-N2,N2,1-trimethyl-N4-(1-(methylsulfonyl)piperidin-4-yl)-1H-benzo[d]imidazole-2,4-diamine] was 673 nM; that for `CC(C)N1CCN(c2ccc(-c3cc(NCc4cccc(S(C)(=O)=O)c4)c4nc(-c5ccc(S(C)(=O)=O)cc5)n(C)c4c3)cc2)CC1` [Example 55, 6-(4-(4-isopropylpiperazin-1-yl)phenyl)-1-methyl-N-(3-(methylsulfonyl)benzyl)-2-(4-(methylsulfonyl)phenyl)-1H-benzo[d]imidazol-4-amine] was 1130 nM.
As to `CC(C)N1CCN(c2ccc(-c3cc(NCc4ccc(S(C)(=O)=O)cc4)c4nc(-c5ccc(S(C)(=O)=O)cc5)n(C)c4c3)cc2)CC1` [Example 56, 6-(4-(4-isopropylpiperazin-1-yl)phenyl)-1-methyl-N-(4-(methylsulfonyl)benzyl)-2-(4-(methylsulfonyl)phenyl)-1H-benzo[d]imidazol-4-amine, TFA], the IC50 is 1640 nM.
For `Cc1nc2c(NC3CCN(C4COC4)CC3)cc(-c3ccc(N4CCN(C(C)C)CC4)cc3)cc2n1C` [Example 57, 6-(4-(4-isopropylpiperazin-1-yl)phenyl)-1,2-dimethyl-N-(1-(oxetan-3-yl)piperidin-4-yl)-1H-benzo[d]imidazol-4-amine], the IC50 stood at 188 nM.
As to `Cc1nc2c(N3CCN(C4COC4)CC3)cc(-c3ccc(N4CCN(C(C)C)CC4)cc3)cc2n1C` [Example 58, 6-(4-(4-isopropylpiperazin-1-yl)phenyl)-1,2-dimethyl-4-(4-(oxetan-3-yl)piperazin-1-yl)-1H-benzo[d]imidazole], the IC50 worked out at 860 nM.

In general, IC50 refers to the point on the concentration scale where inhibition reaches its midpoint.

(Values after patent US20260224584A1 (priority 2023, published 2026).)
